Measured values as given in US20080038809A1, “ISOLATED LECTIN POLYPEPTIDES CONSISTING OF TRUNCATED […] UDP-GalNAc:POLYPEPTIDE N- ACETYLGALACTOSAMINYLTRANSFERASES” (GLYCOZYM APS, priority 2002, published 2008).
“Also recorded” adds a separate entry of the source.

Tests used:
[1] = biological target: T1, GalNAc-T4 lectin domain (Homo sapiens, UniProt Q8N4A0); assay: Inhibition of GalNAc-T4 lectin domain (T4ld) binding to GalNAc-MUC1 glycopeptide, ELISA
T1 construct: comprises amino acid residues 405-578 of GALNT4; made in house; host or cells: baculovirus (pAcGP67-A), virus made in Sf9, protein produced in High Five insect cells
T1 sequence (Q8N4A0 405-578): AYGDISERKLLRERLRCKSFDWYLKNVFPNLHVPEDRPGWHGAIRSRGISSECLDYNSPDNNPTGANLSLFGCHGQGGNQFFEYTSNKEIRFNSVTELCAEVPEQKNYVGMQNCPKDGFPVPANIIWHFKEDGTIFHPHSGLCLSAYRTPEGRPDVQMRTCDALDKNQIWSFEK
Experimental: (§1) Direct binding ELISA assay was developed as follows: Polystyrene microtiter plates (Maxisorb, Nunc, Denmark) were coated with peptides or enzymatically glycosylated glycopeptides in PBS overnight at 4° C. Plates were washed and blocked with 0.1% Tween20 and 0.2% BSA in PBS for 1 h at room temperature, followed by incubation with biotinylated proteins in PBS with 0.05% Tween20 for 2 h at room temperature. After four washes with PBS, plates were incubated with 1:2,000 dilution streptavidin-HRP (Sigma) in PBS for 30 min at room temperature and washed four times with PBS. Development was performed with 0.5 mg/ml o-phenylenediamine and 0.02% H2O2 at room temperature for 15 min, and reaction stopped by adding 100 μl/well of 0.5 N H2SO4. Competitive inhibition assays were done at end-point titers of GalNAc-transferase proteins with one hour preincubations with inhibitor.
(§2) In binding studies using lectins without biotinylation antibodies to the HIS-tag and the T7-tag, or in some experiments antibodies raised to GalNAc-T2 and -T4 enzymes were used to detect binding.
(§3) Inhibition experiments were used to further define the binding specificity of GalNAc-T2 and -T4 secreted soluble enzymes as well as lectin domains compared to Helix Pomatia lectin (Table IV).

[2] = biological target: T2, secreted soluble GalNAc-T2 (Homo sapiens, UniProt Q10471); assay: Inhibition of secreted soluble GalNAc-T2 (sT2) binding to GalNAc-MUC1 glycopeptide, ELISA
T2 construct: 6xHis (N); thrombin cleavage site (N); T7 antibody site (N); made in house; host or cells: baculovirus (pAcGP67A), High Five insect cells
T2 sequence (Q10471 52-571 limits assumed): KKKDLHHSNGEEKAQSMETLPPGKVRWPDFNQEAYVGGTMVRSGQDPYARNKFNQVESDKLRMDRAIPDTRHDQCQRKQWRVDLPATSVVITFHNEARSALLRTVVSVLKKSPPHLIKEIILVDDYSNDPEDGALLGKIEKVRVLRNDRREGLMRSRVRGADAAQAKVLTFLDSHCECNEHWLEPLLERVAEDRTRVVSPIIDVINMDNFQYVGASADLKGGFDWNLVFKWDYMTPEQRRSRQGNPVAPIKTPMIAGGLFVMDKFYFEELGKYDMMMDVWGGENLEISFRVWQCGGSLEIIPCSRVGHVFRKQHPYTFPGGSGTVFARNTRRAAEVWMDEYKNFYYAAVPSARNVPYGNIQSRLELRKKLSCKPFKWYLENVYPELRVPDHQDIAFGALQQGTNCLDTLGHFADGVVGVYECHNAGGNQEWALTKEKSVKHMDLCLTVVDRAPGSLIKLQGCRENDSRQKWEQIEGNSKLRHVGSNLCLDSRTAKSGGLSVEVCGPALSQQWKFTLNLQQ
Experimental: as §1, §3

[3] = biological target: T3, secreted soluble GalNAc-T4 (Homo sapiens, UniProt Q8N4A0); assay: Inhibition of secreted soluble GalNAc-T4 (sT4) binding to GalNAc-MUC1 glycopeptide, ELISA
T3 construct: 6xHis (N); thrombin cleavage site (N); T7 antibody site (N); made in house; host or cells: baculovirus (pAcGP67A), High Five insect cells
T3 sequence (Q8N4A0 36-578 limits assumed): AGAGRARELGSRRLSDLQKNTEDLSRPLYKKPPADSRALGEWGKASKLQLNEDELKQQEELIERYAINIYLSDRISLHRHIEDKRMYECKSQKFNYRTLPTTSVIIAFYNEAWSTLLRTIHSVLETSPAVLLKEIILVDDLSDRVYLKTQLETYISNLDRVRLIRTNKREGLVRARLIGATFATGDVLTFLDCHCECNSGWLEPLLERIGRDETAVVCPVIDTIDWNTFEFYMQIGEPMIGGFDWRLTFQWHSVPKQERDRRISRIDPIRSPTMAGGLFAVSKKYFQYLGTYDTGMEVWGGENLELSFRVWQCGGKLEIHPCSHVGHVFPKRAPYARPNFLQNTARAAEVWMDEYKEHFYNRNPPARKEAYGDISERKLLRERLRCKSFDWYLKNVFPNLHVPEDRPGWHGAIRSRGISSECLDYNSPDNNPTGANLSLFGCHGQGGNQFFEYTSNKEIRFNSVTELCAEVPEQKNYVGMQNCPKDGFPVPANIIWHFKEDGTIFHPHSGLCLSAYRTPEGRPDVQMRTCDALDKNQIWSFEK
Experimental: as §1, §3

[4] = biological target: GalNAc-T4 (Homo sapiens, UniProt Q8N4A0); settings: 230 mM; cited from earlier work
Chain of GalNAc-T4 (Q8N4A0 whole entry, the tested form may be a part): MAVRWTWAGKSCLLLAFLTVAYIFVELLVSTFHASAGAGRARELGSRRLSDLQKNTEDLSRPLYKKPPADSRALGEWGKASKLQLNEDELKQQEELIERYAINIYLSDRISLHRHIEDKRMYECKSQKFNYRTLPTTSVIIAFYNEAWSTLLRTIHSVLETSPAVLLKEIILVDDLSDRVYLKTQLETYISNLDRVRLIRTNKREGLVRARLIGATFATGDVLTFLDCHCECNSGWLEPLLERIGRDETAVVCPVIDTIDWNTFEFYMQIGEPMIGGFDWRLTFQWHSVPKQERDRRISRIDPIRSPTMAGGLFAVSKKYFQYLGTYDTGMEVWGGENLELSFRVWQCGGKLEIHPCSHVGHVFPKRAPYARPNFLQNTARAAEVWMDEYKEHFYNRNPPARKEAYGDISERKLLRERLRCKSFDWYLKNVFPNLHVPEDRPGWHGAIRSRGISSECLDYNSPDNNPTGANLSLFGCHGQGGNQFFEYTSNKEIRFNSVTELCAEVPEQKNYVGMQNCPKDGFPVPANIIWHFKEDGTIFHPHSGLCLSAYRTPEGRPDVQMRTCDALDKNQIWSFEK

[5] = biological target: T4, GalNAc-T2 lectin domain (Homo sapiens, UniProt Q10471); assay: Inhibition of GalNAc-T2 lectin domain (T2ld) binding to GalNAc-MUC1 glycopeptide, ELISA
T4 construct: comprises amino acid residues 408-571 of GALNT2; made in house; host or cells: baculovirus (pAcGP67-A), virus made in Sf9, protein produced in High Five insect cells
T4 sequence (Q10471 408-571): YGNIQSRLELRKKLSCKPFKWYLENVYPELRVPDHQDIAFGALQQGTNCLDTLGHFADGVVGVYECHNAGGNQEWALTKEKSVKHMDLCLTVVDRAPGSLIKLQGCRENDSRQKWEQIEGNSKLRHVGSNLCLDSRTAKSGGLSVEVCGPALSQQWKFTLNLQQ
Experimental: as §1, §2, §3

[6] = system: GalNAc-T2 and -T4 secreted soluble enzymes as well as lectin domains; assay: Inhibition of GalNAc-transferase lectin binding to GalNAc-glycopeptides, statements on GalNAc-T2 and -T4 together; set-up: species or system human; settings: enzymes and isolated lectins
Experimental: as §1
Lectins and antibodies to carbohydrates usually recognize the anomeric configuration of the sugar structures they bind.
as §3

[7] = system: MUC5AC in HT-29 MTX cells; assay: MUC5AC secretion, SDS-PAGE western blot of media with LUM5-1 (FIG. 17); format: cell-based, human; settings: 5 mM, continuous culture, media at 14 days
Experimental: FIG. 17 illustrates SDS-PAGE Western analysis of MUC5AC secretion from HT29MTX cells using polyclonal anti-MUC5AC antibody LUM5-1. In order to evaluate GalNAcβ-benzyl as an inhibitor of mucin glycosylation and secretion we used the HT-29 metotrexate (MTX) cultured colon carcinoma cells of mucin secreting phenotype. HT-29 MTX cells have a goblet cell like phenotype with constitutive production of MUC5AC. Cells were continuously grown up to 21 days in the presence of 5 mM GalNAcα-benzyl, 5 mM GalNAcβ-benzyl, 5 mM GlcNAcα-benzyl and without inhibitor. […] In striking contrast, MUC5AC was not detected in the media from cells treated with GalNAcα-benzyl (Lane 3) or GalNAcβ-benzyl (Lane 4). Results shown are from media collected at 14 days.
In order to evaluate GalNAcβ-benzyl as an inhibitor of mucin glycosylation and secretion we used the cultured colon carcinoma cells of mucin secreting phenotypes: HT-29 metotrexate (MTX) cells selected from the HT-29 cell line by culture in the presence of MTX (kind gift from G. Huet, France). The HT-29 MTX cells were selected to yield a goblet cell like phenotype with constitutive production of MUC5AC. In order to ensure proper goblet cell differentiation the HT29MTX cell line were continuously grown up to 21 days in the presence of 5 mM GalNAcα-benzyl, 5 mM GalNAcβ-benzyl, 5 mM GlcNAcα-benzyl and without inhibitor using culture conditions as described in Hennebicq-Reig et al. (Permanent exposure of mucin-secreting HT-29 cells to benzyl-N-acetyl-alpha-D-galactosaminide induces abnormal O-glycosylation of mucins and inhibits constitutive and stimulated MUC5AC secretion. Biochem J. 1998; 334:283-95). […] Furthermore the viscosity of the media from cells with and without inhibitor was evaluated using viscosity micro-measurement.

[8] = system: MUC1 in CHO1d1D/MUC1F-clone2 cells; assay: MUC1 expression in cell lysates, immunoprecipitation and SDS-PAGE western blot (FIGS. 12-15); format: cell-based, Chinese Hamster; settings: 2 mM, 48 hours
Experimental: FIG. 12 is an SDS-PAGE Western analysis of GalNAcα-benzyl inhibition of MUC1 expression in CHO 1d1D cells stably transfected with a full coding MUC1 construct. […] Cells were further treated with 2 mM GalNAcα-benzyl (lanes 1, 4, 7, 10), 2 mM GlcNAcα-benzyl (lanes 2, 5, 8, 11) or no inhibitor (lanes 3, 6, 9, 12). Cells were washed and lysed at 24 or 48 hours and the lysates subjected to immunoprecipitation with monoclonal antibody HMFG2, which broadly recognize MUC1 glycoforms. Immunoprecipitates were analysed by SDS-PAGE and western blot using HMFG2 antibody to detect MUC1 expression. Lane M indicates molecular markers with assigned mw. Lane C includes a control MUC1 180-mer tandem repeat peptide which has been GalNAc-glycosylated with 3 moles GalNAc per repeat using GalNAc-T2. The sharp bands migrating at 100-200 kd are immunoglobulins indicated by IgG.
Cells were further treated with 2 mM GalNAcα-benzyl (lanes 1, 4, 7, 10), 2 mM GalNAcβ-benzyl (lanes 2, 5, 8, 11) or 2 mM GlcNAcα-benzyl (lanes 3, 6, 9, 12). Cells were washed and lysed at 36 hours and the lysates subjected to immunoprecipitation with monoclonal antibodies HMFG2 (lanes 1-6) or 5E5 (lanes 7-12). Immunoprecipitates were analysed by SDS-PAGE and western blot using HMFG2 antibody. Lanes M and C as described in legend to FIG. 7.
We next analysed the expression of MUC1 produced by CHO1d1D/MUC1F-clone2 cells by SDS-PAGE western analysis. […] Cells were further treated with 2 mM GalNAcα-benzyl, GlcNAcα-benzyl or no inhibitor. Cells were washed and lysed at 24 or 48 hours and the lysates subjected to immunoprecipitation with monoclonal antibody HMFG2, which broadly recognize MUC1 glycoforms. Immunoprecipitates were analysed by SDS-PAGE and western blot using HMFG2 antibody to detect MUC1 expression. […] In striking contrast, treatment with GalNAcα-benzyl had significant effect after 48 hours. […] This indicates some heterogeneity in glycosylation.
As shown in Examples 2 and 3, polypeptide GalNAc-transferases contain lectin domains with binding properties for GalNAc-peptides including GalNAc-MUC1 peptides. […] GalNAcβ-benzyl, the β-anomeric configuration of GalNAc-benzyl (there is a β linkage between the N-acetylgalactosamine and the benzyl ring), was custom synthesized by Alberta Research Council (Canada), and its structure was confirmed by mass spectrometry and ^1H-NMR. […] Cells were then treated with 2 mM GalNAcα-benzyl, GalNAcβ-benzyl, or GlcNAcα-benzyl as control (GlcNAcα-benzyl was shown in Example 4 to have no effect). Cells were washed and lysed as described above after 36 hours and the lysates subjected to immunoprecipitation with anti-MUC1 monoclonal antibodies HMFG2 or 5E5. […] FIG. 15 illustrates the same experiment as in FIG. 14 except that the detection antibody is 5E5 and only Tn and STn MUC1 glycoforms are visualised.

[9] = system: GalNAc-MUC1 glycopeptide; assay: Direct binding assay (ELISA) of biotinylated GalNAc-transferases to GalNAc-MUC1 glycopeptide (FIG. 4); set-up: species or system human; settings: coated at 1 μg/ml, biotinylated enzymes
Experimental: (§4) FIG. 4 is a plot of absorbance v. ligand dilution showing GalNAc-transferase binding to GalNAc-MUC1 glycopeptide. A direct binding assay (ELISA) mediated by the lectin domain was developed and validated with soluble secreted GalNAc-T4 and -T2 enzyme proteins. ELISA plates were coated with peptides or glycopeptides at 1 μg/ml, blocked with BSA, and incubated with biotinylated enzymes. After washing, bound enzyme proteins were detected with HRP-Streptavidin as described in detail in Example 2. Secreted soluble constructs of GalNAc-transferases which are enzymatically active may bind to (glyco)peptide substrates through their catalytic units as originally described for GalNAc-T2^32.
as §1, with “Development was performed with 0.5 mg/ml o-phenylenediamine and 0.02% H2O2 at room temperature for 15 min, and reaction stopped by adding 100 μl/well of 0.5 N H2SO4. Competitive inhibition assays were done at end-point titers of GalNAc-transferase proteins with one hour preincubations with inhibitor.” left out

[10] = system: unglycosylated MUC1 peptide; assay: Direct binding assay (ELISA) of biotinylated GalNAc-transferases to unglycosylated MUC1 peptide (FIG. 4); set-up: species or system human; settings: coated at 1 μg/ml, biotinylated enzymes
Experimental: as §4
as §1, with “Development was performed with 0.5 mg/ml o-phenylenediamine and 0.02% H2O2 at room temperature for 15 min, and reaction stopped by adding 100 μl/well of 0.5 N H2SO4. Competitive inhibition assays were done at end-point titers of GalNAc-transferase proteins with one hour preincubations with inhibitor.” left out

| IC50 [1] | IC50 [2] | IC50 [3] | IC50 [5] | Compound | other results |
| --- | --- | --- | --- | --- | --- |
| 5 mM | 15 mM | 1 mM | 37 mM | CC(=O)N[C@H]1C(O)O[C@H](CO)[C@H](O)[C@@H]1O (stereo partly drawn) [GalNAc, N-acetylgalactosamine] | inhibition of GalNAc-glycopeptide activity of GalNAc-T4 [4]: selective inhibition; inhibition of GalNAc-T2 and -T4 lectin mediated binding, in words [6]: selectively inhibited |
| – | – | – | – | CC(=O)N[C@H]1[C@@H](OCc2ccccc2)O[C@H](CO)[C@@H](O)[C@@H]1O [BzlαGlcNAc] | MUC5AC in media (secretion) [7]: detected; MUC1 expression ([8]; HMFG2 blot, cells grown in GalNAc or Gal and GalNAc, listed as GlcNAcα-benzyl): same glycoforms at similar intensity; also recorded: no effect; SDS-PAGE migration of MUC1 (O-glycosylation) ([8]; cells grown in Gal and GalNAc): no effect |
| > 100 mM | > 100 mM | > 100 mM | > 100 mM | OC[C@H]1O[C@@H](O[C@H]2[C@H](O)[C@@H](O)C(O)O[C@@H]2CO)[C@H](O)[C@@H](O)[C@H]1O (stereo partly drawn) [Lactose] | – |
| – | – | – | – | GalNAc-T2: soluble secreted human GalNAc-T2 enzyme protein, biotinylated | binding to GalNAc-MUC1 glycopeptide [9]: selectively bind; binding to unglycosylated MUC1 peptide [10]: no significant binding |
